Assay results taken from patent publication US20220397564A1, “ENGINEERING SPATIAL-ORGANIZED CARDIAC ORGANOIDS FOR DEVELOPMENTAL TOXICITY TESTING” (priority 2021, published 2022).
Where two headings read alike, the source gives them in different places.

How the values were obtained:
[1] = tested on: hiPSC-based cardiac organoids; settings: for concentration at which cardiac organoids/tissue failed to differentiate (cardiac differentiation abolished) / organoid formation / concentration with no contractile functions (stopped beating): human; for organoid formation: 100 μM
zebrafish embryos = settings: for proportion of embryos with normal (D-looped) heart looping: across / at higher concentrations; for embryos expressing the GFP transgene: Tg(my17:GFP)
[2] = tested on: cardiac organoids (cTnT positive cells); assay: flow cytometry of cardiac differentiation efficiency (cTnT) of drug-treated organoids; type: cell-based, human; settings: with increasing treatment concentration
Experimental: Cardiac organoids were dissociated using 0.25% Trypsin for 10-15 minutes. Cells were collected, centrifuged and washed with PBS. Cells were fixed and permeabilized with a mixture of 4% (vol/vol) paraformaldehyde and 0.2% (vol/vol) TritonX solution for 15 minutes. Cells were incubated with primary antibody cardiac troponin T (Thermofisher cat. no. MA5-12960) in a 1:250 dilution for 1 hour in PBS, and then incubated with AlexaFluor 546 secondary fluorophore for an additional hour. The cell suspension was washed, centrifuged and filtered through 35 μm mesh cell strainer. Flow cytometry was performed on the BDAccuriC6 at Flow Cytometry Core at Syracuse University.
Concentrations were chosen after evaluation of blood plasma concentrations reported for each drug from the FDA drug information database (accessdata.FDA.gov). Concentrations were chosen to be at or approximated by blood plasma concentrations, while accounting for drug solubility in water or DMSO, while also supplying a large range in order to detect potential toxicity. Drugs were diluted in the appropriate culture media at three concentrations each increasing by a factor of 10 with respective controls. […] Samples were terminated on Day 20 for motion tracking analysis and for fluorescence/confocal imaging to assess the developmental toxicity of specific drugs based on the organoid morphology and contractile physiology.

[3] = tested on: hiPSC-based cardiac organoids; assay: cardiac developmental toxicity assay on hiPSC-derived cardiac organoids (differentiation, contractile behavior, 3D morphology)

Structure (SMILES) | FWHM [1] | beat rate [1] | height [1] | concentration at which cardiac organoids/tissue failed to differentiate (cardiac differentiation abolished) [1] [µM] | developmental toxicity (cardiac looping) (zebrafish embryos; zebrafish, in vivo) | developmental toxicity on zebrafish embryonic heart development (cardiac looping) (zebrafish embryos; zebrafish, in vivo) | organoid formation / 3D organoid morphology [1] | also measured
CC1(C)S[C@@H]2[C@H](NC(=O)[C@H](N)c3ccc(O)cc3)C(=O)N2[C@H]1C(=O)O [Amoxicillin] | smaller | decreased | smaller |  |  |  |  | beat duration [1]: increased
C[C@H]1c2cccc(O)c2C(=O)C2=C(O)[C@]3(O)C(=O)C(C(N)=O)=C(O)[C@@H](N(C)C)[C@@H]3[C@@H](O)[C@@H]21 [Doxycycline] | Significant toxicity | Significant toxicity | Significant toxicity | 100 | severe developmental toxic effects | moderate toxicity |  | beat duration [1]: Significant toxicity; contraction velocity [1]: Significant toxicity; organoid formation [1]: failed to create 3D organoids
CN(C)CCOC(C)(c1ccccc1)c1ccccn1 (stereo not shown) [Doxylamine Succinate] |  | slower |  |  |  |  | no drug effects | percentage of cells expressing cTnT [2]: did not affect; effect on contractile functions (overall) [1]: prominent effects; proportion of embryos with normal (D-looped) heart looping (zebrafish embryos; 48 hpf): considerable proportion
CC1=C(/C=C/C(C)=C/C=C/C(C)=C\C(=O)O)C(C)(C)CCC1 [Isotretinoin, 13-cis-retinoic acid] |  |  |  | 1 | severe developmental toxic effects | severe defects | large organoids | embryos expressing the GFP transgene (zebrafish embryos; zebrafish, in vivo, 48 hpf): 0%
O=C([O-])[O-].[Li+].[Li+] [Lithium Carbonate] |  |  |  |  |  |  |  | developmental toxicity (cardiac looping) (zebrafish embryos; 48 hpf, all concentrations): severe developmental toxic effects; developmental toxicity on zebrafish embryonic heart development (cardiac looping) (zebrafish embryos; 48 hpf, concentration not specified): moderate toxicity; organoid formation / 3D organoid morphology ([3]; all tested concentrations or not specified, vs controls): mild toxicity; effect on cardiac differentiation ([3]; concentration not specified): slight reduction; effect on contractile functions (overall) ([3]; concentration not specified, listed as lithium): did not affect; effect on contractile functions (overall) ([3]; concentration not specified, listed as lithium carbonate): no significant toxicity effects; FWHM ([3]; high / higher concentrations (thalidomide in b100: 100 μM)): moderate toxicity
O=C1NC(=O)C(c2ccccc2)(c2ccccc2)N1 [Phenytoin] | smaller |  | smaller |  | mild embryotoxic effects | mild developmental toxic effect | smaller cardiac organoids than controls, but still maintained structural integrity | concentration with no contractile functions (stopped beating) [1]: 100 µM
CO[C@H]1/C=C/O[C@@]2(C)Oc3c(C)c(O)c4c(O)c(c(/C=N/N5CCN(C)CC5)c(O)c4c3C2=O)NC(=O)/C(C)=C\C=C\[C@H](C)[C@H](O)[C@@H](C)[C@@H](O)[C@@H](C)[C@H](OC(C)=O)[C@@H]1C [Rifampicin] | toxicity | toxicity | toxicity | 100 | mild embryotoxic effects | mild developmental toxic effect |  | contraction velocity [1]: toxicity; organoid formation [1]: severe developmental toxicity at a high concentration (100 μM) with no organoid formation
O=C1CCC(N2C(=O)c3ccccc3C2=O)C(=O)N1 (stereo not shown) [Thalidomide] |  | high variability |  |  | very mild toxicity level | not as significant as what was observed in the organoid model | abnormal cardiac organoids | percentage of cells expressing cTnT [2]: considerable reduction; area ratio [1]: decrease; area ratio of cardiac muscle coverage [1]: less cardiac tissue coverage; proportion of embryos with normal (D-looped) heart looping (zebrafish embryos; 48 hpf): did not notably decrease
CC1=C(/C=C/C(C)=C/C=C/C(C)=C/C(=O)O)C(C)(C)CCC1 [Tretinoin, all-trans-retinoic acid] |  |  |  | 10 | severe developmental toxic effects | severe defects |  | effect on cardiac differentiation [1]: abolished all cardiac differentiation; concentration with no contractile functions (stopped beating) [1]: 10 µM; embryos expressing the GFP transgene (zebrafish embryos; zebrafish, in vivo, 48 hpf): 0%
